Source: ChEMBL document CHEMBL3992500, “Design, facile synthesis and biological evaluations of novel pyrano[3,2-a]phenazine hybrid molecules as antitumor agents” (Eur J Med Chem, 2017)
pIC50: −log10 of the molar value.

Legend:
Format in all cases: functional, cell-based
A549 = test: Antiproliferative activity against human A549 cells after 48 hrs by MTT assay; conditions: A549, 48 h
MCF7 = test: Antiproliferative activity against human MCF7 cells after 48 hrs by MTT assay; conditions: MCF7, 48 h
HepG2 = test: Antiproliferative activity against human HepG2 cells after 48 hrs by MTT assay; conditions: HepG2, 48 h
HCT-116 = test: Antiproliferative activity against human HCT116 cells after 48 hrs by MTT assay; conditions: HCT-116, 48 h

Compound | pIC50 (A549) | pIC50 (MCF7) | pIC50 (HepG2) | pIC50 (HCT-116)
CCOC(=O)C1=C(N)Oc2c(N)cc3nc4ccccc4nc3c2C1c1ccc([N+](=O)[O-])cc1 (stereo not drawn) | 4.73 | 4.88 | 5.17 | 4.79
CCOC(=O)C1=C(N)Oc2c(N)cc3nc4ccccc4nc3c2C1c1ccc(CC)cc1 (stereo not drawn) | 4.41 | < 4.30 | 4.52 | 4.82
CC(C)c1ccc(C2C(C#N)=C(N)Oc3c(N)cc4nc5ccccc5nc4c32)cc1 (stereo not drawn) | 4.84 | < 4.30 | 4.79 | 4.69
CCOC(=O)C1=C(N)Oc2c(N)cc3nc4ccccc4nc3c2C1c1ccc(Cl)cc1Cl (stereo not drawn) | 4.72 | < 4.30 | 4.94 | 4.92
CCOC(=O)C1=C(N)Oc2c(N)cc3nc4ccccc4nc3c2C1c1cc(OC)c(Br)c(OC)c1 (stereo not drawn) | 4.87 | < 4.30 | 5.00 | 4.70
COc1ccc(Br)cc1C1C(C#N)=C(N)Oc2c(N)cc3nc4ccccc4nc3c21 (stereo not drawn) | 4.85 | < 4.30 | 4.93 | 4.52
CCOC(=O)C1=C(N)Oc2c(N)cc3nc4ccccc4nc3c2C1c1cc(Br)ccc1OC (stereo not drawn) | < 4.30 | < 4.30 | 4.86 | < 4.30
COc1cc(C2C(C#N)=C(N)Oc3c(N)cc4nc5ccccc5nc4c32)cc(OC)c1O (stereo not drawn) | < 4.30 | 4.54 | < 4.30 | 5.12
N#CC1=C(N)Oc2c(N)cc3nc4ccccc4nc3c2C1c1c(Cl)cccc1Cl (stereo not drawn) | 4.92 | 4.40 | < 4.30 | 4.99
COc1cc(C2C(C#N)=C(N)Oc3c(N)cc4nc5ccccc5nc4c32)cc(Br)c1OC (stereo not drawn) | 5.28 | 4.59 | 5.21 | 4.92
CCOC(=O)C1=C(N)Oc2c(N)cc3nc4ccccc4nc3c2C1c1ccccc1[N+](=O)[O-] (stereo not drawn) | 4.84 | 4.73 | 5.13 | 4.74
CCOC(=O)C1=C(N)Oc2c(N)cc3nc4ccccc4nc3c2C1c1ccccc1F (stereo not drawn) | 4.61 | 4.73 | 5.20 | 4.45
N#CC1=C(N)Oc2c(N)cc3nc4ccccc4nc3c2C1c1ccc(Br)cc1 (stereo not drawn) | 4.95 | < 4.30 | 4.99 | 5.20
N#CC1=C(N)Oc2c(N)cc3nc4ccccc4nc3c2C1c1cccc(Cl)c1 (stereo not drawn) | 4.67 | 4.41 | 5.03 | 4.82
CCOC(=O)C1=C(N)Oc2c(N)cc3nc4ccccc4nc3c2C1c1ccc(Br)cc1 (stereo not drawn) | 4.76 | < 4.30 | 4.97 | 4.69
COc1cc(OC)c(C2C(C#N)=C(N)Oc3c(N)cc4nc5ccccc5nc4c32)cc1OC (stereo not drawn) | 4.35 | < 4.30 | 4.64 | 4.51
CCOC(=O)C1=C(N)Oc2c(N)cc3nc4ccccc4nc3c2C1c1cc(Br)c(OC)c(OC)c1 (stereo not drawn) | 4.99 | < 4.30 | 4.99 | 5.01
N#CC1=C(N)Oc2c(N)cc3nc4ccccc4nc3c2C1c1cccc([N+](=O)[O-])c1 (stereo not drawn) | 4.58 | 4.69 | < 4.30 | < 4.30
CCOC(=O)C1=C(N)Oc2c(N)cc3nc4ccccc4nc3c2C1c1ccc(Cl)cc1 (stereo not drawn) | 5.26 | 5.00 | 5.14 | 5.09
CCOC(=O)C1=C(N)Oc2c(N)cc3nc4ccccc4nc3c2C1c1cccc(Br)c1 (stereo not drawn) | 4.87 | < 4.30 | < 4.30 | 4.97
COc1cc(C2C(C#N)=C(N)Oc3c(N)cc4nc5ccccc5nc4c32)cc(OC)c1Br (stereo not drawn) | 4.62 | < 4.30 | 4.91 | 4.74
CCc1ccc(C2C(C#N)=C(N)Oc3c(N)cc4nc5ccccc5nc4c32)cc1 (stereo not drawn) | 4.63 | 4.72 | 4.81 | 5.26
